PMC13503280, “A pharmacological modality to sequester homomeric proteins” (Nature Chemical Biology, 2026)

Assays:
Ramos cells = test: Viability measurements, Ramos cells; assay type: cell-based; details: Ramos, 72 h
Description: (§1) Cells were seeded in a transparent-bottom, black 96-well plate, at 15,000 cells per well in sixfold replications. in 90 µl of medium and left to adhere for at least 4 h. The cells were then treated with the respective compound by adding 10 µl of medium–-compound mixture for a final volume of 100 µl in each well. Cell-Titer blue reagent was used to measure viability according to the manufacturer’s instructions. Plate reader measurements were performed on a Tecan Spark Control 10 M fluorescence system.

Nrf2 = test: WB of Nrf2; assay type: cell-based; details: U2OS cells, 20 h compound treatment
Keap1 = Keap1 (Homo sapiens, UniProt Q14145); test: WB of Keap1 in OCI-AML2 cells (soluble/insoluble phase); assay type: cell-based; design: endogenous in cells; host or cells: OCI-AML2
Description: Cells were incubated with DMSO at 0.1% or with compound in concentrations ranging 10–20,000 nM for 20 h unless indicated differently. Following incubation, lysis was performed in RIPA buffer and the samples were measured for total protein quantification by BCA assay (Thermo Fisher Scientific, 23225). Then, 20–40 μg of each sample was loaded and run on an SDS–PAGE gel, before transferring onto a nitrocellulose membrane using a Trans-Blot Turbo system (Bio-Rad) and blocking using a 5% BSA in TBS-T (w/v) solution for 1 h at room temperature. Incubation with primary antibodies (mouse anti-BCL-6 (sc-7388, Santa Cruz, 1:500; overnight at 4 °C), mouse anti-Keap1 (sc-365626, Santa Cruz, 1:500; overnight at 4 °C), rabbit anti-LDHA (4H18L6, Thermo Fisher, 1:1,000; overnight at 4 °C), mouse anti-NQO2 (sc-271665, Santa Cruz, 1:500; overnight at 4 °C), rabbit anti-c-Myc (5605, Cell Signaling, 1:1,000; overnight at 4 °C) and mouse anti-β-actin (3700, Cell Signaling, 1:1,000; 1 h at room temperature) was performed and then the membranes were washed and incubated with a horseradish-peroxidase-conjugated secondary antibody (mouse 7076/rabbit 7074, Cell Signaling) at room temperature for 1 h. Imaging of the chemiluminescence signal was performed using a ChemiDoc XRS+ instrument (Bio-Rad). Primary band quantifications were normalized against β-actin bands.

OCI-AML2 cells = test: Viability measurements, OCI-AML2 cells; assay type: cell-based
Description: as §1

recombinant Keap1 BTB = molecular target: T1, recombinant Keap1 BTB (Homo sapiens, UniProt Q14145, S172A); test: In vitro crosslinking of Keap1 BTB using GA; assay type: biochemical; details: 50 µM Keap1, 50 µM compound
T1 construct: The Keap1 BTB domain (48–180) encoding the single substitution S172A was cloned into pET28-bdSumo vector; His–bdSumo (N, cleaved yes); made in house; host or cells: E. coli BL21(DE3)
Description: Recombinant Keap1 samples were incubated at room temperature in desired conditions in a buffer containing 25 mM HEPES, 150 mM NaCl pH 8, 1 mM TCEP and 0.01% Tween. At the selected time point, each sample was treated with a 7.5% aqueous solution of GA (prepared fresh) for a final GA concentration of 0.125% and mixed gently. The crosslinking reaction was left at room temperature for 40 min, followed by addition of NuPage gel sample buffer with 20 mM DTT and boiling at 95 °C for 5 min. Lastly, 2–3 μg of each sample was loaded and run on an SDS–PAGE gel. Bands were visualized using a Coomassie blue solution.

NQO1 expression = test: qPCR for NQO1 expression in OCI-AML2 cells after washout; assay type: cell-based; details: OCI-AML2, 250 nM 20 h, from 48 h after treatment
Description: Cells were treated with either DMSO or compound at 250 nM, followed by washing out the treated medium after 20 h and reseeding in fresh medium. Cells were then collected at several time points post washout. Total RNA was extracted using RNeasy mini kit (Qiagen, 74104). […] PCR amplification was carried out in Step-One Plus thermocycler (Applied Biosystems). Relative quantification was performed using standard curves. GAPDH was used for normalization.

Chain of Keap1 (Q14145 whole entry): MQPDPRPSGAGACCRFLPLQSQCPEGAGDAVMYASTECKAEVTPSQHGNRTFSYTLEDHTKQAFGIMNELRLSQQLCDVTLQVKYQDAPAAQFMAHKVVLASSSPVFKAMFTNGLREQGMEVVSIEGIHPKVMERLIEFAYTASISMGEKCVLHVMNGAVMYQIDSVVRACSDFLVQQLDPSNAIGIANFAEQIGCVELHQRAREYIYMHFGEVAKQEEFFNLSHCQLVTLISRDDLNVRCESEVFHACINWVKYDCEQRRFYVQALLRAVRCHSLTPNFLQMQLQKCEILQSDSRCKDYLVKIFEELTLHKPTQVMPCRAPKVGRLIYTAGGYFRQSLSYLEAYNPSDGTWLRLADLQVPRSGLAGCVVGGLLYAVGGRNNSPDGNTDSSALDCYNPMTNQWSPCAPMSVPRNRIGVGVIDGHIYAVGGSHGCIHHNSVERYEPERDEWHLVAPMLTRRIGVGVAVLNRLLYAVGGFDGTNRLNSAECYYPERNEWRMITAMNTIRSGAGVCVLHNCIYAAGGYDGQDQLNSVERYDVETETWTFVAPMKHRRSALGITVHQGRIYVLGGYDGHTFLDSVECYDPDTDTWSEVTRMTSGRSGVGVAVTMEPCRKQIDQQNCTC
T1 sequence (Q14145 48-180 S172A): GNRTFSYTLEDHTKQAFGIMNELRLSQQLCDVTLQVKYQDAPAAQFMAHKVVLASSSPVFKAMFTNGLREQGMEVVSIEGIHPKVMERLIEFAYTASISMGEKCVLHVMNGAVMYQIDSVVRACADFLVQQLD

CC1(C)CCC2(C(=O)NCCOCCOCCNC(=O)C34CCC(C)(C)CC3C3C(=O)C=C5C6(C)C=C(C#N)C(=O)C(C)(C)C6CCC5(C)C3(C)CC4)CCC3(C)C(C(=O)C=C4C5(C)C=C(C#N)C(=O)C(C)(C)C5CCC43C)C2C1 (stereo not shown) [EL133]
additional viability loss compared with BDX (Ramos cells): no additional viability loss | Nrf2 levels (WB) (Nrf2): Nrf2 upregulation | Keap1 in insoluble phase after washout (WB) (Keap1; OCI-AML2, 500 nM EL133 or 2.5 µM EL256 for 20 h, then washout): remained accumulated in the insoluble phase for up to the 96 h | rescue of Keap1 downregulation by MLN-4924 or bortezomib pretreatment (Keap1; OCI-AML2, 1 h pretreatment, then compound 7 h): did not rescue Keap1 downregulation | concentration at which Keap1 accumulates in the insoluble phase (as low as) (Keap1; OCI-AML2 cells): 500 nM | EC50 (Keap1; OCI-AML2 cells, 20 h treatment, read-out: EC50 (Keap1 downregulation, WB)): 102 nM | IC50 (OCI-AML2 cells; Homo sapiens, OCI-AML2, 72 h): 265 nM | difference in viability IC50 over BDX (OCI-AML2 cells; OCI-AML2): fourfold | higher-order assemblies after GA crosslinking (SDS–PAGE) (recombinant Keap1 BTB): induced the formation of higher-order assemblies | duration of NQO1 upregulation after washout (NQO1 expression): remained higher
